Source: ChEMBL document CHEMBL4118194, “Molecular modeling, synthesis, antibacterial and cytotoxicity evaluation of sulfonamide derivatives of benzimidazole, indazole, benzothiazole and thiazole” (Bioorg Med Chem, 2018)
Values after ≈ are worked out from the molar mass of the structure shown.

Key:
[1] = system: Bacillus cereus; test: Synergistic antibacterial activity against Bacillus cereus NCIM 2156 at 0.37 to 50 ug/ml after 24 hrs in presence of […] sulfamethoxazole by broth micro dilution method; type: functional; conditions: NCIM 2156, 24 h
[2] = system: Vero; test: Cytotoxicity against African green monkey Vero cells assessed as decrease in cell viability after 3 days by MTT assay; type: cell-based; conditions: Chlorocebus sabaeus, 72 h
[3] = system: Pseudomonas aeruginosa; test: Antibacterial activity against Pseudomonas aeruginosa NCIM 2036 after 24 hrs by broth micro dilution method; type: functional; conditions: NCIM 2036, 24 h
[4] = system: Escherichia coli; test: Synergistic antibacterial activity against wild type Escherichia coli NCIM 2065 at 0.5 times MIC after 24 hrs in presence of 0.0976 to […] sulfamethoxazole by broth micro dilution method; type: functional; conditions: NCIM 2065, 24 h
[5] = system: Escherichia coli; test: Antibacterial activity against Escherichia coli U-621 mutant after 24 hrs by broth micro dilution method; type: functional; conditions: U-621, 24 h
[6] = system: Escherichia coli; test: Synergistic antibacterial activity against wild type Escherichia coli NCIM 2065 at 0.5 times MIC after 24 hrs in presence of 0.0976 to […] chloramphenicol by broth micro dilution method; type: functional; conditions: NCIM 2065, 24 h
[7] = system: Bacillus cereus; test: Synergistic antibacterial activity against Bacillus cereus NCIM 2156 assessed as fractional inhibitory concentration at 0.37 to 50 ug/ml after 24 hrs in presence of […] chloramphenicol by broth micro dilution method; type: functional
[8] = system: Staphylococcus aureus; test: Synergistic antibacterial activity against Staphylococcus aureus NCIM 2079 at 0.37 to 50 ug/ml after 24 hrs in presence of […] sulfamethoxazole by broth micro dilution method; type: functional; conditions: NCIM 2079, 24 h
[9] = system: CCRF-CEM; test: Cytotoxicity against human CEM cells assessed as decrease in cell viability after 5 days by MTT assay; type: cell-based; conditions: 120 h
[10] = system: Staphylococcus aureus; test: Antibacterial activity against Staphylococcus aureus NCIM 2079 after 24 hrs by broth micro dilution method; type: functional; conditions: NCIM 2079, 24 h
[11] = system: PBMC; test: Cytotoxicity against human PBMC assessed as decrease in cell viability after 5 days by MTT assay; type: cell-based; conditions: 120 h
[12] = system: Bacillus cereus; test: Antibacterial activity against Bacillus cereus NCIM 2156 after 24 hrs by broth micro dilution method; type: functional; conditions: NCIM 2156, 24 h
[13] = system: Escherichia coli; test: Synergistic antibacterial activity against wild type Escherichia coli NCIM 2065 assessed as fractional inhibitory concentration at 0.5 times MIC after 24 hrs in presence of 0.0976 to […] sulfamethoxazole by broth micro dilution method; type: functional
[14] = system: Escherichia coli; test: Potency index, ratio of chloramphenicol MIC to compound MIC for wild type Escherichia coli NCIM 2065; type: functional
[15] = system: Staphylococcus aureus; test: Synergistic antibacterial activity against Staphylococcus aureus NCIM 2079 assessed as fractional inhibitory concentration at 0.37 to 50 ug/ml after 24 hrs in presence of […] chloramphenicol by broth micro dilution method; type: functional
[16] = system: Escherichia coli; test: Antibacterial activity against wild type Escherichia coli NCIM 2065 after 24 hrs by broth micro dilution method; type: functional; conditions: NCIM 2065, 24 h
[17] = system: Escherichia coli; test: Synergistic antibacterial activity against wild type Escherichia coli NCIM 2065 assessed as fractional inhibitory concentration at 0.5 times MIC after 24 hrs in presence of 0.0976 to […] chloramphenicol by broth micro dilution method; type: functional
[18] = system: Pseudomonas aeruginosa; test: Synergistic antibacterial activity against Pseudomonas aeruginosa NCIM 2036 at 0.37 to 50 ug/ml after 24 hrs in presence of […] chloramphenicol by broth micro dilution method; type: functional; conditions: NCIM 2036, 24 h
[19] = system: Pseudomonas aeruginosa; test: Synergistic antibacterial activity against Pseudomonas aeruginosa NCIM 2036 assessed as fractional inhibitory concentration at 0.37 to 50 ug/ml after 24 hrs in presence of […] sulfamethoxazole by broth micro dilution method; type: functional
[20] = system: Staphylococcus aureus; test: Synergistic antibacterial activity against Staphylococcus aureus NCIM 2079 assessed as fractional inhibitory concentration at 0.37 to 50 ug/ml after 24 hrs in presence of […] sulfamethoxazole by broth micro dilution method; type: functional
[21] = system: Pseudomonas aeruginosa; test: Synergistic antibacterial activity against Pseudomonas aeruginosa NCIM 2036 assessed as fractional inhibitory concentration at 0.37 to 50 ug/ml after 24 hrs in presence of […] chloramphenicol by broth micro dilution method; type: functional
[22] = system: Bacillus cereus; test: Synergistic antibacterial activity against Bacillus cereus NCIM 2156 assessed as fractional inhibitory concentration at 0.37 to 50 ug/ml after 24 hrs in presence of […] sulfamethoxazole by broth micro dilution method; type: functional
[23] = system: Bacillus cereus; test: Synergistic antibacterial activity against Bacillus cereus NCIM 2156 at 0.37 to 50 ug/ml after 24 hrs in presence of […] chloramphenicol by broth micro dilution method; type: functional; conditions: NCIM 2156, 24 h
[24] = system: Staphylococcus aureus; test: Synergistic antibacterial activity against Staphylococcus aureus NCIM 2079 at 0.37 to 50 ug/ml after 24 hrs in presence of […] chloramphenicol by broth micro dilution method; type: functional; conditions: NCIM 2079, 24 h
[25] = system: Pseudomonas aeruginosa; test: Synergistic antibacterial activity against Pseudomonas aeruginosa NCIM 2036 at 0.37 to 50 ug/ml after 24 hrs in presence of […] sulfamethoxazole by broth micro dilution method; type: functional; conditions: NCIM 2036, 24 h
[26] = system: Escherichia coli; test: Potency index, ratio of sulfamethoxazole MIC to compound MIC for wild type Escherichia coli NCIM 2065; type: functional
[27] = system: Escherichia coli; test: Synergistic antibacterial activity against wild type Escherichia coli NCIM 2065 assessed as fractional inhibitory concentration at 0.37 to 50 ug/ml after 24 hrs in presence of […] sulfamethoxazole by broth micro dilution method; type: functional
[28] = system: Escherichia coli; test: Synergistic antibacterial activity against wild type Escherichia coli NCIM 2065 at 0.37 to 50 ug/ml after 24 hrs in presence of […] sulfamethoxazole by broth micro dilution method; type: functional; conditions: NCIM 2065, 24 h
[29] = system: Pseudomonas aeruginosa; test: Synergistic antibacterial activity against Pseudomonas aeruginosa NCIM 2036 assessed as fractional inhibitory concentration at 0.5 times MIC after 24 hrs in presence of 0.0976 to […] sulfamethoxazole by broth micro dilution method; type: functional
[30] = system: Pseudomonas aeruginosa; test: Synergistic antibacterial activity against Pseudomonas aeruginosa NCIM 2036 at 0.5 times MIC after 24 hrs in presence of 0.0976 to […] sulfamethoxazole by broth micro dilution method; type: functional; conditions: NCIM 2036, 24 h
[31] = system: Escherichia coli; test: Potency index, ratio of […] MIC to compound MIC for Escherichia coli U-621 mutant; type: functional
[32] = system: Pseudomonas aeruginosa; test: Synergistic antibacterial activity against Pseudomonas aeruginosa NCIM 2036 assessed as fractional inhibitory concentration at 0.5 times MIC after 24 hrs in presence of 0.0976 to […] chloramphenicol by broth micro dilution method; type: functional
[33] = system: Escherichia coli; test: Potency index, ratio of sulfamethoxazole MIC to compound MIC for Escherichia coli U-621 mutant; type: functional
[34] = system: Pseudomonas aeruginosa; test: Potency index, ratio of chloramphenicol MIC to compound MIC for Pseudomonas aeruginosa NCIM 2036; type: functional
[35] = system: Pseudomonas aeruginosa; test: Synergistic antibacterial activity against Pseudomonas aeruginosa NCIM 2036 at 0.5 times MIC after 24 hrs in presence of 0.0976 to […] chloramphenicol by broth micro dilution method; type: functional; conditions: NCIM 2036, 24 h
[36] = system: Pseudomonas aeruginosa; test: Synergistic antibacterial activity against Pseudomonas aeruginosa NCIM 2036 at 0.5 times MIC after 24 hrs in presence of 0.0976 to […] chloramphenicol by broth micro dilution method relative to compound alone; type: functional

| SMILES | IC50 [2] | MIC [3] | MIC [4] | MIC [5] | MIC [6] | IC50 [9] | MIC [10] | IC50 [11] | MIC [12] | FIC [13] | MIC [16] | FIC [17] | FIC [19] | MIC [25] | also measured |
| --- | --- | --- | --- | --- | --- | --- | --- | --- | --- | --- | --- | --- | --- | --- | --- |
| O=S(=O)(c1ccc(Cl)cc1)n1cnc2ccccc21 | > 100 µM | 12.5 µg/mL (≈ 42.7 µM) | 0.0976 µg/mL | 50 µg/mL (≈ 171 µM) | 0.391 µg/mL | > 61.7 µM | 12.5 µg/mL (≈ 42.7 µM) | > 100 µM | 25 µg/mL (≈ 85.4 µM) | 0.03 | 3.1 µg/mL (≈ 10.6 µM) | 0.12 | 0.24 | 3.1 µg/mL | MIC [1]: 6.2 µg/mL; FIC [7]: 0.24; MIC [8]: 3.1 µg/mL; Ratio [14]: 2; FIC [15]: 0.24; MIC [18]: 3.1 µg/mL; FIC [20]: 0.12; FIC [21]: 0.24; FIC [22]: 0.24; MIC [23]: 6.2 µg/mL; MIC [24]: 3.1 µg/mL |
| Cc1ccc(S(=O)(=O)n2cnc3ccccc32)cc1 | > 100 µM | 25 µg/mL (≈ 91.8 µM) |  | 50 µg/mL (≈ 184 µM) | 0.781 µg/mL | ≥ 100 µM | 25 µg/mL (≈ 91.8 µM) | > 100 µM | 50 µg/mL (≈ 184 µM) |  | 6.2 µg/mL (≈ 22.8 µM) | 0.12 | 0.24 | 6.2 µg/mL | MIC [1]: 6.2 µg/mL; FIC [7]: 0.25; MIC [8]: 6.2 µg/mL; Ratio [26]: 2; FIC [27]: 0.5; FIC [15]: 0.5; MIC [18]: 6.2 µg/mL; FIC [20]: 0.49; MIC [28]: 3.1 µg/mL; FIC [21]: 0.24; FIC [22]: 0.24; MIC [23]: 12.5 µg/mL; MIC [24]: 12.5 µg/mL |
| O=[N+]([O-])c1ccc(S(=O)(=O)n2ncc3cc([N+](=O)[O-])ccc32)cc1 |  | 3.1 µg/mL (≈ 8.9 µM) | 0.0976 µg/mL | 12.5 µg/mL (≈ 35.9 µM) | 0.195 µg/mL |  | 6.2 µg/mL (≈ 17.8 µM) |  | 6.2 µg/mL (≈ 17.8 µM) | 0.03 | 3.1 µg/mL (≈ 8.9 µM) | 0.06 |  |  | FIC [29]: 0.06; MIC [30]: 0.195 µg/mL; Ratio [31]: 4; FIC [32]: 0.06; Ratio [14]: 2; Ratio [33]: 4; Ratio [34]: 2; MIC [35]: 0.195 µg/mL |
| O=S(=O)(Nc1nccs1)c1ccc(Cl)cc1 | 6.2 µM | 6.2 µg/mL (≈ 22.6 µM) | 0.195 µg/mL | 25 µg/mL (≈ 91 µM) | 0.195 µg/mL | > 100 µM | 6.2 µg/mL (≈ 22.6 µM) | > 100 µM | 3.1 µg/mL (≈ 11.3 µM) | 0.06 | 3.1 µg/mL (≈ 11.3 µM) | 0.06 | 0.24 | 1.5 µg/mL | fold change (FC) [36]: 32; Ratio [31]: 4; FIC [32]: 0.03; Ratio [33]: 4; MIC [35]: 0.195 µg/mL |
| O=C(N[C@H](CO)[C@H](O)c1ccc([N+](=O)[O-])cc1)C(Cl)Cl [CHLORAMPHENICOL] |  | 6.2 µg/mL (≈ 19.2 µM) |  | 50 µg/mL (≈ 155 µM) |  |  | 6.2 µg/mL (≈ 19.2 µM) |  | 6.2 µg/mL (≈ 19.2 µM) |  | 6.2 µg/mL (≈ 19.2 µM) |  |  |  |  |
| C[C@@H]1C[C@@H]([C@H](O)CC2CC(=O)NC(=O)C2)C(=O)[C@@H](C)C1 [CYCLOHEXIMIDE] | 0.2 µM | 12.5 µg/mL (≈ 44.4 µM) |  | 50 µg/mL (≈ 178 µM) |  | 0.2 µM | 12.5 µg/mL (≈ 44.4 µM) | 0.9 µM | 12.5 µg/mL (≈ 44.4 µM) |  | 12.5 µg/mL (≈ 44.4 µM) |  |  |  |  |
| Cc1cc(NS(=O)(=O)c2ccc(N)cc2)no1 [SULFAMETHOXAZOLE] |  | 3.1 µg/mL (≈ 12.2 µM) |  | 25 µg/mL (≈ 98.7 µM) |  |  | 6.2 µg/mL (≈ 24.5 µM) |  | 6.2 µg/mL (≈ 24.5 µM) |  | 3.1 µg/mL (≈ 12.2 µM) |  |  |  |  |
